# pIC50: −log10 of the molar value. Bridge positions count the residues as written; N and C are the ends. Square brackets hold non-standard residues; d marks the D form. Peptide text beside a SMILES is read from it. * marks the point of attachment. Bip = N[C@@H](Cc1ccc(-c2ccccc2)cc1)C(=O)O; Phe(3-Me) = Cc1cccc(C[C@H](N)C(=O)O)c1; Cha = N[C@@H](CC1CCCCC1)C(=O)O; Carboxymethyl = O=C(O)C*; Orn = NCCC[C@H](N)C(=O)O; Aun = NCCCCCCCCCCC(=O)O; Dab = NCC[C@H](N)C(=O)O; Dap = NC[C@H](N)C(=O)O; AEEA = NCCOCCOCC(=O)O
# Molecular target: T1, PD-1/PD-L1 interaction (PE-labeled human PD-L1-Ig binding to Jurkat cell line over-expressing human PD-1) (Homo sapiens, UniProt Q15116)
# T1 construct: expressed in transfected cells; host or cells: Jurkat
# T1 sequence (Q15116 25-288): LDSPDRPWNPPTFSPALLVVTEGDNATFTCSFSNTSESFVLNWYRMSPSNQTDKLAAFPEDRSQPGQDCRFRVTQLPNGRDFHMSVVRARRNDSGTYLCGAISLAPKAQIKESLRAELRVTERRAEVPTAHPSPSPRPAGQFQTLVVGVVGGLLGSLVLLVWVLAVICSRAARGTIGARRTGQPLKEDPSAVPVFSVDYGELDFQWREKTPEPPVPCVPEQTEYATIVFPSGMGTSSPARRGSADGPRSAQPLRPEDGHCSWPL
# Assay: Jurkat-PD-1 Cell Binding High-Content Screening Assay (CBA)
# Format: cell-based
# Settings: Jurkat cell line over-expressing human PD-1; PE-labeled PD-L1-Ig 20 nM final; read-out: Jurkat hPD1-PDL1 IC50
# Method in brief: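 Jurkat cells over-expressing human PD-1 (8×10^3 per well, DMEM/10% FCS) preincubated with compound 2 h at 37° C, then PE-labeled human PD-L1-Ig (20 nM final) added for 1 h. Cells fixed with paraformaldehyde, Hoechst-stained, and bound fluorescence quantified by high-content imaging.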
row,pIC50,SMILES
1,7.61,CC(C)C[C@H]1NC(=O)[C@H](CCCN)NC(=O)[C@H](C(C)C)NC(=O)[C@H](Cc2ccc(-c3ccccc3)cc2)NC(=O)[C@H](C(C)C)NC(=O)[C@H](Cc2c[nH]c3ccccc23)NC(=O)[C@H](CC(=O)O)NC(=O)[C@H](Cc2ccc(OCC(=O)O)cc2)NC(=O)[C@H](CN)NC(=O)CSC[C@@H](C(=O)N[C@@H](C)C(=O)N[C@@H](CCN)C(=O)NCCCCCCCCCCC(=O)O)NC(=O)[C@H]([C@@H](C)O)NC(=O)[C@H](C(C)C)NC(=O)[C@H](CC2CCCCC2)NC(=O)[C@H](Cc2cnc[nH]2)NC1=O [Compound 1082] ({CH2CO}-[Dap]Y(Carboxymethyl)DWV[Bip]V[Orn][dL]H[Cha]VTCA[Dab][Aun]-OH; thioether N-14)
2,7.68,CC(C)C[C@H]1NC(=O)[C@H](CCCN)NC(=O)[C@H](C(C)C)NC(=O)[C@H](Cc2ccc(-c3ccccc3)cc2)NC(=O)[C@H](C(C)C)NC(=O)[C@H](Cc2c[nH]c3ccccc23)NC(=O)[C@H](CC(=O)O)NC(=O)[C@H](Cc2ccc(OCC(=O)O)cc2)NC(=O)[C@H](CN)NC(=O)CSC[C@@H](C(=O)N[C@@H](C)C(=O)N[C@@H](CCCN)C(=O)NCC(=O)NCCCCCCCCCCC(=O)O)NC(=O)[C@H]([C@@H](C)O)NC(=O)[C@H](C(C)C)NC(=O)[C@H](CC2CCCCC2)NC(=O)[C@H](Cc2c[nH]cn2)NC1=O [Compound 1086] ({CH2CO}-[Dap]Y(Carboxymethyl)DWV[Bip]V[Orn][dL]H[Cha]VTCA[Orn]G[Aun]-OH; thioether N-14)
3,7.60,CC(C)C[C@H]1NC(=O)[C@H](CCCN)NC(=O)[C@H](C(C)C)NC(=O)[C@H](Cc2ccc(-c3ccccc3)cc2)NC(=O)[C@H](C(C)C)NC(=O)[C@H](Cc2c[nH]c3ccccc23)NC(=O)[C@H](CC(=O)O)NC(=O)[C@H](Cc2ccc(OCC(=O)O)cc2)NC(=O)[C@H](CN)NC(=O)CSC[C@@H](C(=O)N[C@@H](C)C(=O)N[C@@H](CCC(=O)O)C(=O)NCC(=O)NCCCCCCCCCCC(=O)O)NC(=O)[C@H]([C@@H](C)O)NC(=O)[C@H](C(C)C)NC(=O)[C@H](CC2CCCCC2)NC(=O)[C@H](Cc2c[nH]cn2)NC1=O [Compound 1088] ({CH2CO}-[Dap]Y(Carboxymethyl)DWV[Bip]V[Orn][dL]H[Cha]VTCAEG[Aun]-OH; thioether N-14)
4,7.48,CC(C)C[C@H]1NC(=O)[C@H](CCCN)NC(=O)[C@H](C(C)C)NC(=O)[C@H](Cc2ccc(-c3ccccc3)cc2)NC(=O)[C@H](C(C)C)NC(=O)[C@H](Cc2c[nH]c3ccccc23)NC(=O)[C@H](CC(=O)O)NC(=O)[C@H](Cc2ccc(OCC(=O)O)cc2)NC(=O)[C@H](CN)NC(=O)CSC[C@@H](C(=O)N[C@@H](C)C(=O)N[C@@H](CC(=O)O)C(=O)NCC(=O)NCCCCCCCCCCC(=O)O)NC(=O)[C@H]([C@@H](C)O)NC(=O)[C@H](C(C)C)NC(=O)[C@H](CC2CCCCC2)NC(=O)[C@H](Cc2cnc[nH]2)NC1=O [Compound 1089] ({CH2CO}-[Dap]Y(Carboxymethyl)DWV[Bip]V[Orn][dL]H[Cha]VTCADG[Aun]-OH; thioether N-14)
5,7.41,CC(C)C[C@H]1NC(=O)[C@H](CCCN)NC(=O)[C@H](C(C)C)NC(=O)[C@H](Cc2ccc(-c3ccccc3)cc2)NC(=O)[C@H](C(C)C)NC(=O)[C@H](Cc2c[nH]c3ccccc23)NC(=O)[C@H](CC(=O)O)NC(=O)[C@H](Cc2ccc(OCC(=O)O)cc2)NC(=O)[C@H](CN)NC(=O)CSC[C@@H](C(=O)N[C@@H](C)C(=O)N[C@@H](CCCCN)C(=O)NCCCCCCCCCCC(=O)O)NC(=O)[C@H]([C@@H](C)O)NC(=O)[C@H](C(C)C)NC(=O)[C@H](CC2CCCCC2)NC(=O)[C@H](Cc2cnc[nH]2)NC1=O [Compound 1090] ({CH2CO}-[Dap]Y(Carboxymethyl)DWV[Bip]V[Orn][dL]H[Cha]VTCAK[Aun]-OH; thioether N-14)
6,7.50,CC(C)C[C@H]1NC(=O)[C@H](CCCN)NC(=O)[C@H](C(C)C)NC(=O)[C@H](Cc2ccc(-c3ccccc3)cc2)NC(=O)[C@H](C(C)C)NC(=O)[C@H](Cc2c[nH]c3ccccc23)NC(=O)[C@H](CC(=O)O)NC(=O)[C@H](Cc2ccc(OCC(=O)O)cc2)NC(=O)[C@H](CN)NC(=O)CSC[C@@H](C(=O)N[C@@H](C)C(=O)N[C@@H](CCCN)C(=O)NCCCCCCCCCCC(=O)O)NC(=O)[C@H]([C@@H](C)O)NC(=O)[C@H](C(C)C)NC(=O)[C@H](CC2CCCCC2)NC(=O)[C@H](Cc2cnc[nH]2)NC1=O [Compound 1091] ({CH2CO}-[Dap]Y(Carboxymethyl)DWV[Bip]V[Orn][dL]H[Cha]VTCA[Orn][Aun]-OH; thioether N-14)
7,7.43,CC(C)C[C@H]1NC(=O)[C@H](CCCN)NC(=O)[C@H](C(C)C)NC(=O)[C@H](Cc2ccc(-c3ccccc3)cc2)NC(=O)[C@H](C(C)C)NC(=O)[C@H](Cc2c[nH]c3ccccc23)NC(=O)[C@H](CC(=O)O)NC(=O)[C@H](Cc2ccc(OCC(=O)O)cc2)NC(=O)[C@H](CN)NC(=O)CSC[C@@H](C(=O)N[C@@H](CC(=O)O)C(=O)NCC(=O)NCCCCCCCCCCC(=O)O)NC(=O)[C@H]([C@@H](C)O)NC(=O)[C@H](C(C)C)NC(=O)[C@H](CC2CCCCC2)NC(=O)[C@H](Cc2cnc[nH]2)NC1=O [Compound 1092] ({CH2CO}-[Dap]Y(Carboxymethyl)DWV[Bip]V[Orn][dL]H[Cha]VTCDG[Aun]-OH; thioether N-14)
8,7.93,Cc1cccc(C[C@@H]2NC(=O)[C@H](CC(=O)O)NC(=O)[C@H](Cc3ccc(OCC(=O)O)cc3)NC(=O)[C@H](CN)NC(=O)CSC[C@@H](C(=O)N[C@@H](CC(=O)O)C(=O)NCC(=O)NCCCCCCCCCCC(=O)O)NC(=O)[C@H]([C@@H](C)O)NC(=O)[C@H](C(C)C)NC(=O)[C@H](CC3CCCCC3)NC(=O)[C@H](Cc3cnc[nH]3)NC(=O)[C@@H](CC(C)C)NC(=O)[C@H](CCCN)NC(=O)[C@H](C(C)C)NC(=O)[C@H](Cc3ccc(-c4ccccc4)cc3)NC(=O)[C@H](C(C)C)NC2=O)c1 [Compound 1093] ({CH2CO}-[Dap]Y(Carboxymethyl)D[Phe(3-Me)]V[Bip]V[Orn][dL]H[Cha]VTCDG[Aun]-OH; thioether N-14)
9,7.76,CC(C)C[C@H]1NC(=O)[C@H](CCCN)NC(=O)[C@H](C(C)C)NC(=O)[C@H](Cc2ccc(-c3ccccc3)cc2)NC(=O)[C@H](C(C)C)NC(=O)[C@H](Cc2c[nH]c3ccccc23)NC(=O)[C@H](CC(=O)O)NC(=O)[C@H](Cc2ccc(OCC(=O)O)cc2)NC(=O)[C@H](CN)NC(=O)CSC[C@@H](C(=O)N[C@@H](CCC(=O)O)C(=O)NCC(=O)NCCCCCCCCCCC(=O)O)NC(=O)[C@H]([C@@H](C)O)NC(=O)[C@H](C(C)C)NC(=O)[C@H](CC2CCCCC2)NC(=O)[C@H](Cc2cnc[nH]2)NC1=O [Compound 1094] ({CH2CO}-[Dap]Y(Carboxymethyl)DWV[Bip]V[Orn][dL]H[Cha]VTCEG[Aun]-OH; thioether N-14)
10,7.80,CC(C)C[C@H]1NC(=O)[C@H](CCCN)NC(=O)[C@H](C(C)C)NC(=O)[C@H](Cc2ccc(-c3ccccc3)cc2)NC(=O)[C@H](C(C)C)NC(=O)[C@H](Cc2c[nH]c3ccccc23)NC(=O)[C@H](CC(=O)O)NC(=O)[C@H](Cc2ccc(OCC(=O)O)cc2)NC(=O)[C@H](CN)NC(=O)CSC[C@@H](C(=O)NCCOCCOCC(=O)N[C@@H](CN)C(=O)NCCCCCCCCCCC(=O)O)NC(=O)[C@H]([C@@H](C)O)NC(=O)[C@H](C(C)C)NC(=O)[C@H](CC2CCCCC2)NC(=O)[C@H](Cc2cnc[nH]2)NC1=O [Compound 1095] ({CH2CO}-[Dap]Y(Carboxymethyl)DWV[Bip]V[Orn][dL]H[Cha]VTC[AEEA][Dap][Aun]-OH; thioether N-14)
11,7.80,CC(C)C[C@H]1NC(=O)[C@H](CCCN)NC(=O)[C@H](C(C)C)NC(=O)[C@H](Cc2ccc(-c3ccccc3)cc2)NC(=O)[C@H](C(C)C)NC(=O)[C@H](Cc2c[nH]c3ccccc23)NC(=O)[C@H](CC(=O)O)NC(=O)[C@H](Cc2ccc(OCC(=O)O)cc2)NC(=O)[C@H](CN)NC(=O)CSC[C@@H](C(=O)NCCOCCOCC(=O)N[C@@H](CCN)C(=O)NCCCCCCCCCCC(=O)O)NC(=O)[C@H]([C@@H](C)O)NC(=O)[C@H](C(C)C)NC(=O)[C@H](CC2CCCCC2)NC(=O)[C@H](Cc2cnc[nH]2)NC1=O [Compound 1096] ({CH2CO}-[Dap]Y(Carboxymethyl)DWV[Bip]V[Orn][dL]H[Cha]VTC[AEEA][Dab][Aun]-OH; thioether N-14)
12,7.83,CC(C)C[C@H]1NC(=O)[C@H](CCCN)NC(=O)[C@H](C(C)C)NC(=O)[C@H](Cc2ccc(-c3ccccc3)cc2)NC(=O)[C@H](C(C)C)NC(=O)[C@H](Cc2c[nH]c3ccccc23)NC(=O)[C@H](CC(=O)O)NC(=O)[C@H](Cc2ccc(OCC(=O)O)cc2)NC(=O)[C@H](CN)NC(=O)CSC[C@@H](C(=O)NCCOCCOCC(=O)N[C@@H](CCCN)C(=O)NCCCCCCCCCCC(=O)O)NC(=O)[C@H]([C@@H](C)O)NC(=O)[C@H](C(C)C)NC(=O)[C@H](CC2CCCCC2)NC(=O)[C@H](Cc2cnc[nH]2)NC1=O [Compound 1097] ({CH2CO}-[Dap]Y(Carboxymethyl)DWV[Bip]V[Orn][dL]H[Cha]VTC[AEEA][Orn][Aun]-OH; thioether N-14)
13,7.86,CC(C)C[C@H]1NC(=O)[C@H](CCCN)NC(=O)[C@H](C(C)C)NC(=O)[C@H](Cc2ccc(-c3ccccc3)cc2)NC(=O)[C@H](C(C)C)NC(=O)[C@H](Cc2c[nH]c3ccccc23)NC(=O)[C@H](CC(=O)O)NC(=O)[C@H](Cc2ccc(OCC(=O)O)cc2)NC(=O)[C@H](CN)NC(=O)CSC[C@@H](C(=O)NCCOCCOCC(=O)N[C@@H](CCC(=O)O)C(=O)NCCCCCCCCCCC(=O)O)NC(=O)[C@H]([C@@H](C)O)NC(=O)[C@H](C(C)C)NC(=O)[C@H](CC2CCCCC2)NC(=O)[C@H](Cc2cnc[nH]2)NC1=O [Compound 1099] ({CH2CO}-[Dap]Y(Carboxymethyl)DWV[Bip]V[Orn][dL]H[Cha]VTC[AEEA]E[Aun]-OH; thioether N-14)
